Columns and labels:
[1] = system: Stellaria media (common chickweed); experiment: Herbicidal pre-emergence action (PE), STEME; format: in vivo; details: dose 1000 g/ha, visual assessment after 2 weeks
Source text: (§1) 1. Herbicidal Pre-Emergence Action (═Pe)
(§2) Seeds of monocotyledonous and dicotyledonous harmful plants are placed in sandy loam and covered with soil. The compounds according to the invention, formulated as emulsion concentrates (EC), are then, as an aqueous emulsion with a water application rate of 800 l/ha (converted), applied to the surface of the covering soil.
(§3) After the treatment, the pots are placed in a greenhouse and kept under good growth conditions for the test plants. The visual assessment of the damage on the test plants is carried out after a trial period of 2 weeks by comparison with untreated controls (herbicidal effect in percent (%): 100% effect=the plants have died, 0% effect=like control plants). CAPBP=Capsella bursa-pastoris (shepherd's purse), STEME=Stellaria media (common chickweed)

[2] = system: Amaranthus retroflexus (redroot pigweed); experiment: Herbicidal post-emergence action (PO), AMARE; format: in vivo; details: dose 1000 g/ha, rated visually after about 2 weeks
Experimental: (§4) 2. Herbicidal Post-Emergence Action (═PO)
(§5) Seeds of monocotyledonous and dicotyledonous harmful plants are placed in sandy loam, covered with soil and cultivated in a greenhouse under good growth conditions. About 2 weeks after sowing, the test plants are treated at the one-leaf stage. To this end, the compounds according to the invention, formulated as emulsion concentrates (EC), as an aqueous emulsion with a water application rate of 800 l/ha (converted), are sprayed onto the green parts of the plants. After the test plants have been kept in the greenhouse under optimum growth conditions for about 2 weeks, the effect of the preparations is rated visually in comparison to untreated controls (herbicidal effect in percent (%): 100% effect=the plants have died, 0% effect=like control plants). CAPBP=Capsella bursa-pastoris (shepherd's purse), STEME=Stellaria media (common chickweed), ABUTH=Abutilon theophrasti (velvetleaf), AMARE=Amaranthus retroflexus (redroot pigweed)

[3] = system: Abutilon theophrasti (velvetleaf); experiment: Herbicidal post-emergence action (PO), ABUTH; format: in vivo; details: dose 1000 g/ha, rated visually after about 2 weeks
Experimental: as §4, §5

[4] = system: Capsella bursa-pastoris (shepherd's purse); experiment: Herbicidal pre-emergence action (PE), CAPBP; format: in vivo; details: dose 1000 g/ha, visual assessment after 2 weeks
Source text: as §1, §2, §3

[5] = logP by LC-MS, method [b], acidic range pH 2.7; format: physicochemical; details: pH 2.7
[6] = system: Spodoptera frugiperda larvae; experiment: Spodoptera frugiperda test (SPDFR spray application); format: in vivo; details: application rate 500 g/ha; maize plants
Experimental: Spodoptera frugiperda Test (SPDFR Spray Application)
Solvents: 78.0 parts by weight of acetone • • 1.5 parts by weight of dimethylformamide Emulsifier: 0.6 part by weight of alkylaryl polyglycol ether
Maize plants (Zea mays) are watered with an active compound preparation of the desired concentration and infected with Spodoptera frugiperda larvae.
After the desired period of time, the kill in % is determined. 100% means that all larvae have been killed; 0% means that none of the larvae have been killed.

[7] = system: Capsella bursa-pastoris (shepherd's purse); experiment: Herbicidal post-emergence action (PO), CAPBP; format: in vivo; details: dose 1000 g/ha, rated visually after about 2 weeks
Experimental: as §4, §5

[8] = system: Stellaria media (common chickweed); experiment: Herbicidal post-emergence action (PO), STEME; format: in vivo; details: dose 1000 g/ha, rated visually after about 2 weeks
Experimental: as §4, §5

Meloidogyne incognita = experiment: Meloidogyne test (spray treatment); format: in vivo; details: concentration 20 ppm; lettuce roots
Experimental: Containers are filled with sand, active compound solution, Meloidogyne incognita egg/larvae suspension and lettuce seeds. The lettuce seeds germinate and the plants develop. On the roots, galls are formed. After the desired period of time, the nematicidal activity is determined by the formation of galls in %. 100% means that no galls were found; 0% means that the number of galls on the treated plants corresponds to that of the untreated control.

log p [5] | SMILES | herbicidal effect STEME [1] | herbicidal effect AMARE [2] | herbicidal effect ABUTH [3] | herbicidal effect CAPBP [4] | efficacy (kill in %) [6] | herbicidal effect CAPBP [7] | herbicidal effect STEME [8] | efficacy (nematicidal activity by formation of galls) (Meloidogyne incognita)
1.38[b] | CC(=O)Nc1cc(Nc2ncc(Cl)c(NC3CCC3)n2)ccc1C [Compound 142] | 70% | 80% | 70% | 80% |  |  |  | 
1.78[b] | CC(=O)Nc1ccc(Nc2ncc(Cl)c(NC3CCC3)n2)cc1Cl [Compound 118] |  |  |  |  |  |  |  | > 80%

Further lines, the compound ahead of its results:

SMILES | log p [5] | herbicidal effect STEME [1] | herbicidal effect AMARE [2] | herbicidal effect ABUTH [3] | herbicidal effect CAPBP [4] | efficacy (kill in %) [6] | herbicidal effect CAPBP [7] | herbicidal effect STEME [8] | efficacy (nematicidal activity by formation of galls) (Meloidogyne incognita)
CN(C)C(=O)c1ccc(Nc2ncc(C(F)(F)F)c(NC3CCC3)n2)cc1 [Compound 221] | 2.48[b] |  |  |  |  | ≥ 80% |  |  | 
CS(=O)(=O)Cc1cccc(Nc2ncc(Br)c(NC3CCC3)n2)c1 [Compound 88] | 1.66[b] | 80% |  |  | 90% |  | 70% | 80% | 
O=C(O)c1ccc(Nc2ncc(Br)c(NC3CCC3)n2)cc1 [Compound 156] | 1.94[b] | 70% |  |  | 70% |  |  |  | 

Source: patent US20110105472A1, “Diaminopyrimidines as crop protection agents” (Bayer CropScience AG, priority 2008, published 2011)
